From PubChem BioAssay (NCI)
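Briefly, cells in 96-well plates were exposed to five compound concentrations for 48 h, and endpoints were estimated by linear interpolation. At the GI50, growth is halved. TGI marks complete inhibition of growth.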

Legend:
Test in all cases: inhibition of tumour cell growth, NCI panel, 48 h
NCI-H522 lung = system: NCI-H522 lung
ACHN renal = system: ACHN renal
SF-268 CNS = system: SF-268 CNS
HCT-116 colon = system: HCT-116 colon
NCI-H226 lung = system: NCI-H226 lung
SF-295 CNS = system: SF-295 CNS
HL-60(TB) leukemia = system: HL-60(TB) leukemia
MALME-3M melanoma = system: MALME-3M melanoma
UO-31 renal = system: UO-31 renal
NCI/ADR-RES ovarian = system: NCI/ADR-RES ovarian

SMILES | TGI (NCI-H522 lung) [µM] | TGI (ACHN renal) [µM] | TGI (SF-268 CNS) [µM] | TGI (HCT-116 colon) [µM] | TGI (NCI-H226 lung) [µM] | TGI (SF-295 CNS) [µM] | TGI (HL-60(TB) leukemia) [µM] | TGI (MALME-3M melanoma) [µM] | TGI (UO-31 renal) [µM] | GI50 (NCI-H522 lung) [µM] | GI50 (ACHN renal) [µM] | GI50 (SF-268 CNS) [µM] | GI50 (HCT-116 colon) [µM] | GI50 (NCI-H226 lung) [µM] | GI50 (SF-295 CNS) [µM] | GI50 (HL-60(TB) leukemia) [µM] | GI50 (MALME-3M melanoma) [µM] | GI50 (UO-31 renal) [µM] | TGI (NCI/ADR-RES ovarian) [µM] | GI50 (NCI/ADR-RES ovarian) [µM]
CC(=O)NNc1nc(C)c(C(=O)/C=C/c2ccc(/C=C/C(=O)c3sc(NNC(C)=O)nc3C)cc2)s1 | > 100 | > 100 | > 100 | > 100 | > 100 | > 100 | > 100 | > 100 | > 100 | – | – | – | – | – | – | – | – | – | – | –
Nc1ncnc2c1nnn2C1C=C(CO)C(O)C1O (stereo not given) | > 100 | > 100 | > 100 | > 53.3 | > 100 | > 100 | 28.5 | > 100 | > 100 | – | – | – | – | – | – | – | – | – | – | –
CN1CCc2c1nc(-c1cccnc1)c1c2N(C)CC1 | – | > 100 | > 100 | > 100 | – | > 100 | > 100 | > 100 | > 100 | – | – | – | – | – | – | – | – | – | – | –
O=C(COc1ccc(Cl)cc1)N1CCN(C(=O)COc2ccc(Cl)cc2)c2ccccc21 | > 100 | > 100 | > 100 | > 100 | – | > 100 | 37.2 | > 100 | 53.9 | – | – | – | – | – | – | – | – | – | – | –
Nc1cc2cccc[n+]2c2cccc(Cl)c12 | 78 | – | 35.6 | – | 86 | – | – | 13.5 | – | 16.2 | 41.8 | 4.94 | 36.9 | 18 | 33.4 | 47.4 | 3.21 | 61.4 | – | –
CCC1C(=O)OCc2c1cc1n(c2=O)C(CC)c2c-1nc1ccccc1c2Cl (stereo not given) | 35 | > 100 | > 100 | – | > 100 | 66 | 57.3 | > 100 | > 100 | – | – | – | – | – | – | – | – | – | – | –
CC(=O)Nc1ccc(C(=O)N2N=C(C)/C(=C/c3cccc([N+](=O)[O-])c3)C2=O)cc1 | > 100 | > 100 | > 100 | > 100 | > 100 | > 100 | > 100 | > 100 | > 100 | – | – | – | – | – | – | – | – | – | – | –
NC(=O)C12CC3CC(CC(Br)(C3)C1)C2 | > 100 | > 100 | > 100 | > 100 | – | > 100 | > 100 | – | > 100 | – | – | – | – | – | – | – | – | – | – | –
CCC[CH2][Sn]([CH2]CCC)([O]C(=O)/C=C/c1ccccc1F)[O]C(=O)/C=C/c1ccccc1F | 0.185 | 2.05 | 1.84 | 2.52 | 2.04 | 2.78 | 4.87 | 1.6 | 2.06 | 0.0798 | 0.797 | 0.526 | 1.05 | 0.775 | 1.43 | 0.536 | 0.385 | 0.775 | – | –
CC(=O)C12C[C@](C#N)(N3CCCCCC3)C1C=Cc1ccccc12 (stereo not given in full) | > 100 | > 100 | > 100 | > 100 | > 100 | > 100 | > 100 | – | > 100 | – | – | – | – | – | – | – | – | – | > 100 | –
C#C[C@H]1CCCCCC1O (stereo not given in full) | > 100 | > 100 | > 100 | > 100 | > 100 | > 100 | > 100 | > 100 | > 100 | – | – | – | – | – | – | – | – | – | – | –
CSCCCNC(=O)c1csc(-c2csc(CCNC(=O)CNC(=O)CNC(=O)CNC(=O)OC(C)(C)C)n2)n1 | > 100 | > 100 | > 100 | > 100 | > 100 | > 100 | – | > 100 | > 100 | – | – | – | – | – | – | – | – | – | > 100 | –
COC(=O)/C(C#N)=C1\CCc2ccccc21 | > 100 | > 100 | > 100 | – | > 100 | > 100 | > 100 | > 100 | > 100 | – | – | – | – | – | – | – | – | – | – | –
CCN(CC)CCC(CNc1c(C)cnc2cc(Cl)ccc12)c1ccc(Cl)cc1 (stereo not given) | 17.3 | 20.1 | 26.1 | – | 31.5 | 10.7 | 26.9 | – | – | 4.43 | 6.47 | 11.1 | – | 16 | 2.53 | 4.45 | – | – | 23.5 | 10.2
COc1ccc(-c2onc(-c3c(C)cc(C)cc3C)c2C2=NCCN2)cc1 | – | > 100 | > 100 | > 100 | 89.8 | 35.3 | 59.3 | 74.1 | > 100 | – | – | – | – | – | – | – | – | – | – | –
O=C(NCC(=O)N1CCOC1=O)OCc1ccccc1 | > 100 | > 100 | > 100 | > 100 | > 100 | > 100 | > 100 | – | > 100 | – | – | – | – | – | – | – | – | – | – | –
COC(=O)C#CCC1CCCC1C1SCCS1 (stereo not given) | > 100 | > 100 | > 100 | > 100 | > 100 | > 100 | > 100 | > 100 | > 100 | – | – | – | – | – | – | – | – | – | – | –
O=C1c2ccccc2C(=O)N1C1(C(=O)NC2(C(=O)O)CCCC2)CCCC1 | > 100 | > 100 | > 100 | > 100 | > 100 | > 100 | – | > 100 | > 100 | – | – | – | – | – | – | – | – | – | > 100 | –
CC1C2CC(C/C2=N/O)C1(C)C (stereo not given) | > 100 | > 100 | > 100 | > 100 | > 100 | > 100 | > 100 | > 100 | > 100 | – | – | – | – | – | – | – | – | – | – | –
CC1=C(Cl)C[C@@H](/C(C)=C\Cl)O[C@@]1(O)C(Br)Br | 49.3 | 75 | > 100 | > 100 | – | > 100 | 38.1 | 79.8 | 72.7 | – | – | – | – | – | – | – | – | – | – | –
COC/N=C(/N)NC#N | > 100 | > 100 | > 100 | > 100 | > 100 | > 100 | > 100 | > 100 | > 100 | – | – | – | – | – | – | – | – | – | – | –
CC1=NN(C(=O)c2ccc(Cl)cc2)C(=O)/C1=C/c1ccc(Cl)cc1 | > 100 | > 100 | > 100 | > 100 | – | > 100 | > 100 | > 100 | > 100 | – | – | – | – | – | – | – | – | – | – | –
